# From PubChem BioAssay AID1996
# Details: buffer; pH 7.4; 200.0 µM
row,solubility kinetic,Compound
1,47.4 µg/mL,COc1cccc(NC2=C(NCCO)C(=O)c3ccccc3C2=O)c1
2,> 47.9 µg/mL,NC(=O)C1CCN(CC(=O)Nc2ccc3c(c2)OCCO3)CC1
3,> 47.5 µg/mL,Cc1cc(/C=C(/C#N)C(=O)O)c(C)n1-c1cccc2ccccc12
4,13.7 µg/mL,CC1CC(C)CN(S(=O)(=O)c2ccc(C(=O)N(C)Cc3ccccc3)cc2)C1 (centres undefined)
5,28.3 µg/mL,COc1ccc(F)cc1S(=O)(=O)n1cnc2ccccc21
6,52.2 µg/mL,Cc1ccc(NC(=O)C2CCC(N3C(=O)C4CCCCC4C3=O)CC2)cc1 (centres undefined)
7,30.5 µg/mL,COc1cccc(NC(=O)c2cnc[nH]2)c1
8,40.5 µg/mL,Cc1csc(NC(=O)CSC2=NCCS2)n1
9,> 53 µg/mL,CN(Cc1ccccc1)C(=O)CN1C(=O)c2ccc([N+](=O)[O-])cc2C1=O
10,5 µg/mL,O=C(COc1ccc(Cl)cc1Br)Nc1ccncc1
11,> 44.8 µg/mL,Cc1cccc(N2CCN(C(=O)c3ccnn3C)CC2)c1C
12,16.8 µg/mL,CC1=NCCN1S(=O)(=O)c1c(C(C)C)cc(C(C)C)cc1C(C)C
13,> 49.7 µg/mL,CC1(C)CC(NC(=O)C(=O)NCCc2ccccc2)CC(C)(C)N1
14,> 50.5 µg/mL,CC(C)NC(=O)CC1(C(=O)NCc2ccc(Cl)cc2)CCCC1
15,29.9 µg/mL,COc1cc(Cl)c(C)cc1NC(=O)COC(=O)C1CC1C (centres undefined)
16,> 40.2 µg/mL,O=C(NC(=S)NC1CCC(O)CC1)c1ccco1 (centres undefined)
17,> 36 µg/mL,O=C(NCC1CCCO1)c1ccc([N+](=O)[O-])o1 (centres undefined)
18,55.8 µg/mL,Cc1ccc(C)c(C(=O)CCC(=O)Nc2ccc(N3CCN(C)CC3)cc2C)c1

row,solubility kinetic,Compound
1,47.1 µg/mL,Cc1sc2ncnc(NCC(c3ccccc3)N(C)C)c2c1C (centres undefined)
2,29.8 µg/mL,COc1ccc(/C=C/C(=O)Nc2ccncc2)cc1OC
3,1.9 µg/mL,O=[N+]([O-])c1ccc(NS(=O)(=O)c2cccc3cccnc23)cc1
4,3.7 µg/mL,Cc1ccc(NC(=O)C2CCCC2)cc1Cl
5,1.7 µg/mL,CC(=O)NCCC(=O)Nc1nc2c(ccc3ccccc32)s1
6,> 40.2 µg/mL,Cc1ccc(-n2nc(-c3ccco3)cc2C(=O)O)cc1
7,> 42.4 µg/mL,CC(C)c1nnc(NC(=O)CCC(=O)NC2CC2)s1
8,> 49.7 µg/mL,O=C(Nc1c(-c2ccccc2)nc2ccccn12)c1ccccc1F
9,< 0.6 µg/mL,COc1ccc(N=C(C)c2sc3ccccc3c2O)cc1
10,27.1 µg/mL,C#CCOc1ccc(/C=C2/C(=O)ON=C2C)cc1OCC
11,> 49.6 µg/mL,CC1CCN(c2ccc3nnc(CCC(=O)NC(C)C)n3n2)CC1
12,> 41.5 µg/mL,COC(=O)CCCSc1nccn1-c1ccccc1
13,19.7 µg/mL,O=C(CCNC(=O)c1ccco1)Nc1ccc(OC(F)(F)F)cc1
14,6.3 µg/mL,CC(=O)Nc1ccc(NC(=O)Nc2ccccc2)cc1
15,> 56.5 µg/mL,O=C(COC(=O)Cc1c[nH]c2ccccc12)Nc1ccccc1C(F)(F)F
16,2.5 µg/mL,CCN(CC)CC(=O)Nc1sc(C)cc1C(=O)c1ccccc1
17,11.9 µg/mL,CC(=O)c1c(C)[nH]c(C(=O)COC(=O)c2nccnc2N)c1C
18,> 46 µg/mL,COc1cc(C)c(S(=O)(=O)NCc2cccnc2)cc1C

# Continued, compound first:
row,Compound,solubility kinetic
1,O=C1CSC(=Nc2ccc(Cl)cc2)N1Cc1ccco1,10.9 µg/mL
2,Cn1cc(SCC(=O)NC2CCCCC2)c2ccccc21,9.5 µg/mL
3,COc1ccccc1C(c1c(O)nc(SC)[nH]c1=O)c1c(O)nc(SC)[nH]c1=O,> 65.2 µg/mL
4,CCOC(=O)CSc1nc(C)c2cccc(C)c2n1,30.6 µg/mL
5,CCCCc1ccc(NC(=O)C2CCCC2)cc1,1.9 µg/mL
6,Cc1ccc(S(=O)(=O)N2CCn3cccc3C2C)cc1 (centres undefined),> 43.6 µg/mL
7,O=C(COC(=O)c1ccc[nH]c1=O)NCCc1ccc(F)cc1,44.6 µg/mL
8,O=C(CSc1ccccn1)N1CCc2ccccc21,3.7 µg/mL
9,O=C(NC(=O)c1ccccc1)Nc1ccccc1O,2.1 µg/mL
10,CN(C)S(=O)(=O)c1ccc(N2CCCC2)c(C(=O)Nc2nccs2)c1,51.6 µg/mL
11,Cc1ccccc1-c1nnc(SC(C)C(=O)NC2CCCC2)o1 (centres undefined),> 49.7 µg/mL
12,Cc1cc(CSc2nc(C)cc(=O)[nH]2)c2ncccc2c1,8.7 µg/mL
13,O=C(COc1ccccc1)NS(=O)(=O)c1ccccc1,38.1 µg/mL
14,CN1CCN(C(=O)c2ccccc2NC(=O)c2ccccc2)CC1,> 48.5 µg/mL
15,Cc1ccc(C(=O)COC(=O)[C@@H](NC(=O)c2ccco2)C(C)C)s1,> 52.4 µg/mL
16,Fc1ccccc1COc1ccc(C(=S)N2CCCC2)cc1,3.5 µg/mL
17,Cc1cc(C)cc(NC(=O)c2cc(C)n(Cc3cccs3)c2C)c1,2.3 µg/mL
18,Cc1ccc(Cn2c(CCC(=O)O)nc3ncccc3c2=O)cc1,> 48.5 µg/mL
19,CCOc1ccc(NC(=O)Nc2ccon2)cc1,36.9 µg/mL
20,Cc1ccc(S(=O)(=O)NC(=O)Nc2ccc(C)cc2C)cc1,35.1 µg/mL
21,Cl.O=C(c1cc2ccccc2o1)N1CCN(Cc2ccccc2)CC1,41.5 µg/mL

row,Compound,solubility kinetic
1,COc1ccccc1C(=O)NC(=O)COC(=O)C1CC1C (centres undefined),> 43.7 µg/mL
2,Cn1cc(Cl)cc(C(=O)Nc2ccccc2)c1=O,2 µg/mL
3,CCC(CO)NCc1sccc1C (centres undefined),26.6 µg/mL
4,Cl.N[C@H]1C(O)O[C@H](CO)[C@@H](O)[C@@H]1O (some centres undefined),> 32.3 µg/mL
5,COc1cccc(CNS(=O)(=O)c2csc(C(N)=O)c2)c1,> 49 µg/mL
6,NC(=O)c1ccc(NC(=O)COC(=O)c2cc3c(s2)CCC3)cc1,8.6 µg/mL
7,Cl.O=[N+]([O-])c1cc(CN(CCO)CCO)ccc1O,> 43.9 µg/mL
8,O=C(Nc1cc2c3c(c1)CC(=O)N3CCC2)c1ccc(Cl)cc1,6.6 µg/mL
9,CC1CCN(S(=O)(=O)c2ccc3c(c2)oc(=O)n3C)CC1,3 µg/mL
10,O=C(NCCc1nnc2ccccn12)c1cccs1,> 40.8 µg/mL
11,Cc1cc(S(=O)(=O)N2CCN(C(=O)c3ccco3)CC2)ccc1F,> 52.9 µg/mL
12,Cl.O=[N+]([O-])c1ccccc1OCC(O)CNC1CCCC1 (centres undefined),46.2 µg/mL
13,CCS(=O)(=O)N1CCc2nc(-c3ccccc3)sc2C1,> 46.3 µg/mL
14,N#CC(C#N)=Cc1c[nH]c(=O)c(C#N)c1Nc1ccccc1,> 43.1 µg/mL
15,O=C(Nc1cccc([N+](=O)[O-])c1)c1ccccc1,9.6 µg/mL
16,COc1cc(/C=N/O)ccc1Oc1cnccn1,> 36.8 µg/mL
17,CN(Cc1ccc(F)cc1)C(=O)c1sccc1-c1ccccc1,21.4 µg/mL
18,CC(C)(C)c1ccc(-c2nc(C#N)c(NCCCn3ccnc3)o2)cc1,1.2 µg/mL
19,O=C(OCC(=O)N1CCCC1=O)c1cc(Cl)ccc1O,> 44.7 µg/mL
20,O=C(Nc1ccc2c(c1)OCCO2)C1CCCC1,> 37.1 µg/mL
21,O=C(NCC(=O)N1CCN(c2ccccc2F)CC1)c1ccco1,> 49.7 µg/mL

row,Compound,solubility kinetic
1,O=C(NCc1ccccn1)c1n[nH]c(=O)c2ccccc12,> 42 µg/mL
2,Cc1ccc(NS(=O)(=O)c2ccc3c(c2)NC(=O)CO3)cc1,10.7 µg/mL
3,Cn1c(N)c(C(=O)COC(=O)/C=C/c2ccc(Cl)c(Cl)c2)c(=O)n(C)c1=O,2.9 µg/mL
4,Cl.OCCN1C2=NCCCN2c2ccccc21,> 38.1 µg/mL
5,O=C(O)CCC(CNS(=O)(=O)c1ccccc1)C(F)(F)F (centres undefined),> 48.8 µg/mL
6,CNC(=O)COC(=O)CNC(=O)c1cc(Cl)cc([N+](=O)[O-])c1,> 49.5 µg/mL
7,Cc1cc2cc(CNC(=S)NCc3ccccc3)ccc2n1C,1.8 µg/mL
8,O=C(Cn1ccccc1=O)c1ccc(Cl)cc1,31.4 µg/mL
9,COc1ccccc1CNC(=O)CCc1cn(C)c2ccccc12,39.2 µg/mL
10,Cc1cc2c(cc1S(=O)(=O)N(C)c1ccccc1)NC(=O)CO2,3.3 µg/mL
11,CC(=O)Nc1nc(-c2cccc3ccccc23)cs1,5.3 µg/mL
12,Clc1nssc1=Nc1ccccc1,22.3 µg/mL
13,CC(=O)Nc1ccc(CN2CCN(CC=C(C)C)C(CCO)C2)cc1 (centres undefined),> 51.8 µg/mL
14,COc1cc(/C=N/c2oc(C)c(C)c2C#N)cc(Br)c1O,8 µg/mL
15,CNC(=S)Nc1cccc(C(=O)OC)c1,> 33.6 µg/mL
16,COc1ccc2cc(C(=O)NCCc3ccccc3)[nH]c2c1,< 0.3 µg/mL
17,CC(C)Cn1c(=S)[nH]c2ccccc2c1=O,1.6 µg/mL
18,COc1cc(/C=C/C(=O)OCC(=O)NC(=O)NC(C)C)ccc1O,> 50.5 µg/mL
19,Cc1nc(=O)c(-c2ccccc2)c(C)n1-c1ccccc1,> 41.5 µg/mL
20,CC(C(=O)O)c1ccc2c(c1)[nH]c1ccc(Cl)cc12 (centres undefined),> 41.1 µg/mL
21,O=C(Cn1ncc(Cl)c(Cl)c1=O)NC1CCCCC1,> 45.6 µg/mL

row,Compound,solubility kinetic
1,CN(CC(=O)Nc1cccc(Cl)c1)C1=NS(=O)(=O)c2ccccc21,3.7 µg/mL
2,Cc1onc(-c2ccccc2)c1C(=O)N(C)CC(=O)Nc1ccc(F)c(F)c1F,> 60.5 µg/mL
3,Cc1cc(C)c(C)c(OCCNCc2ccccc2)c1.O=C(O)C(=O)O,> 53.9 µg/mL
4,CCc1noc(C)c1C(=O)OCC(=O)NC(=O)c1ccccc1,> 47.4 µg/mL
5,Cc1ccc(C(=O)C2CCN(CC(=O)NC3CCCC3)CC2)cc1,> 49.3 µg/mL
6,Cc1cccc(OCCSc2nc3ccccc3n2CCC(=O)O)c1,53.4 µg/mL
7,COc1cc(NC(=O)COC(=O)c2[nH]c(C)c(C(C)=O)c2C)cc(OC)c1,4 µg/mL
8,C/C(=N\O)C(=O)C(CN1CCCCC1)CN1CCCCC1,30.2 µg/mL
9,CN(CC1COc2ccccc2O1)C(=O)CSc1ncccn1 (centres undefined),> 49.7 µg/mL
10,Cc1ccc(C(=O)CN2C(=O)NC3(CCCCC3C)C2=O)s1 (centres undefined),33.2 µg/mL
11,Nc1cc(=O)[nH]c(SCC(=O)Nc2ccccc2-c2ccccc2)n1,> 52.9 µg/mL
12,CC1CCCC(NCC(=O)Nc2ccc(C(N)=O)cc2)C1C (centres undefined),> 45.5 µg/mL
13,CC(C)(C)OC(=O)N1CCCN(C(=O)c2ccc(Cl)cc2)CC1,> 50.8 µg/mL
14,CC(CN)(NS(=O)(=O)c1ccccc1)c1ccccc1 (centres undefined),> 43.6 µg/mL
15,O=C(CN1C(=O)NC2(CCc3ccccc32)C1=O)c1cccs1 (centres undefined),> 49 µg/mL
16,CC(C)c1nc(SCC(=O)Nc2cccc3ccccc23)n[nH]1,> 49 µg/mL
17,COC(=O)c1cc(C(=O)Nc2nc3ccccc3[nH]2)cc([N+](=O)[O-])c1,1.1 µg/mL
18,O=C(COC(=O)/C=C/c1ccccc1)NCc1ccc2c(c1)OCO2,4.8 µg/mL
19,O=C(COc1ccccc1)Nc1ccc(C(=O)N2CCCC2)cc1,34.1 µg/mL
20,CN(C)c1cc(-c2ccc(F)cc2)oc(=O)c1Cl,7.2 µg/mL
